Assays:
Type in all cases: in vivo
[1] = system: Green Peach Aphid (Myzus Persicae); test: Green peach aphid test on dipped pepper plants; details: 120 h, pepper plant leaves dipped, after 5 days, read-out: mortality in comparison with untreated controls
Protocol: • The soybean bean cyst nematode culture was maintained in a greenhouse and soybean eggs and J2 larvae were obtained for testing by dislodging soybean cysts from the roots with a sieve. The cysts were broken to release the eggs and the eggs were maintained in water. The eggs hatched after 5-7 days at 28° C. To microtiter plates containing about 150 μg of compound, 80:20 acetone was added to each well and the solution was mixed to obtain the desired compound concentration. The nematode solution was added to the plate. The plates were then sealed and placed in an incubator at 27° C. and 50% (+/−2%) relative humidity. […] II Activity Against Insects II.1 Cotton Aphid (Aphis Gossypii) • The active compounds were formulated in 50:50 acetone:water and 100 ppm Kinetics surfactant. • Cotton plants at the cotyledon stage (one plant per pot) were infested by placing a heavily infested leaf from the main colony on top of each cotyledon. The aphids were allowed to transfer to the host plant overnight, and the leaf used to transfer the aphids was removed. The cotyledons were dipped in the test solution and allowed to dry. […] II.2 Green Peach Aphid (Myzus Persicae) • The active compounds were formulated in 50:50 acetone:water and 100 ppm Kinetic® surfactant. • Pepper plants in the 2nd leaf-pair stage (variety ‘California Wonder’) were infested with approximately 40 laboratory-reared aphids by placing infested leaf sections on top of the test plants. The leaf sections were removed after 24 hr. The leaves of the intact plants were dipped into gradient solutions of the test compound and allowed to dry. Test plants were maintained under fluorescent light (24 hour photoperiod) at about 25° C. and 20-40% relative humidity. […] II.3 Bean Aphid (Aphis Fabae) • The active compounds were formulated in 50:50 acetone:water and 100 ppm Kinetics surfactant. • Nasturtium plants grown in Metro mix in the 1st leaf-pair stage (variety ‘Mixed Jewle’) were infested with approximately 2-30 laboratory-reared aphids by placing infested cut plants on top of the test plants. The cut plants were removed after 24 hr. […]

[2] = system: Root-Knot Nematode (Meloidogyne incognita); test: Root-knot nematode microtiter plate mortality test; details: after 72 hours, J2 nematodes, immobility regarded as mortality, read-out: mortality compared to untreated controls
Protocol: • Test compounds were prepared and formulated into aqueous formulations using acetone. The formulations were tested using root knot nematode (2nd instar) and soybean cyst nematode (2nd instar) as target species. I.1 Test Procedures for Root-Knot Nematode (Meloidogyne incognita): • Tomato plants (var. Bonny Best) were grown in the greenhouse in plastic tubs (4 to 6 plants per tub). The plants and soil (a 50:50 mixture of sand and “New Egypt” sandy loam) were infested with M. incognita J2 (to establish the “in-house” colony, M. incognita J2 were initially acquired from Auburn University). The plants were kept pruned and were used on an “as needed” basis. The tomato plants were kept in the cylinder containing hydroponic solution and aerated until the nematodes were no longer present in the solution (usually about 60 days). The cultures were checked daily by eluting a small volume (approximately 20 ml) from the bottom of a funnel attached to the cylinder into a small crystallizing dish and observed using a binocular dissecting scope. […] These were counted by putting 25 μl of the nematode solution into a well of an unused well of an assay plate. […] After 72 hours, the population mortality was read, whereby immobility of nematodes was regarded as mortality.

[3] = system: Cotton Aphid (Aphis Gossypii); test: Cotton aphid test on dipped cotton cotyledons; details: 120 h, after 5 days, read-out: mortality in comparison with untreated controls
Protocol: (§1) • The soybean bean cyst nematode culture was maintained in a greenhouse and soybean eggs and J2 larvae were obtained for testing by dislodging soybean cysts from the roots with a sieve. The cysts were broken to release the eggs and the eggs were maintained in water. The eggs hatched after 5-7 days at 28° C. To microtiter plates containing about 150 μg of compound, 80:20 acetone was added to each well and the solution was mixed to obtain the desired compound concentration. The nematode solution was added to the plate. The plates were then sealed and placed in an incubator at 27° C. and 50% (+/−2%) relative humidity. […] II Activity Against Insects II.1 Cotton Aphid (Aphis Gossypii) • The active compounds were formulated in 50:50 acetone:water and 100 ppm Kinetics surfactant. • Cotton plants at the cotyledon stage (one plant per pot) were infested by placing a heavily infested leaf from the main colony on top of each cotyledon. The aphids were allowed to transfer to the host plant overnight, and the leaf used to transfer the aphids was removed. The cotyledons were dipped in the test solution and allowed to dry. […]

[4] = system: Soybean Cyst Nematode (Heterodera Glycine); test: Soybean cyst nematode microtiter plate mortality test; details: after 72 hours, J2 larvae, immobility regarded as mortality, read-out: mortality compared to untreated controls
Protocol: I.2 Test Procedures for Soybean Cyst Nematode (Heterodera Glycine):
as §1

Row | Structure (SMILES) | mortality at 300 ppm [1] [%] | mortality at 100 ppm [2] [%] | also measured
1 | C/C(=N\N=Cc1cc2ccccc2o1)c1cccs1 [Example 5] | > 75 |  | 
2 | C/C(=N\N=CC=Cc1ccccc1)c1cccs1 [Example 12] | > 75 | > 95 | 
3 | CS/C(=N\N=Cc1cc2ccccc2o1)c1cccs1 [Example 2] |  |  | mortality at 300 ppm [3]: > 75%
4 | CO/C(=N\N=Cc1cc2ccccc2o1)c1cccs1 [Example 4] |  | > 95 | 
5 | Cl/C(=N\N=Cc1cc2ccccc2o1)c1cccs1 [Example 1] | > 75 |  | 
6 | Cl/C(=N\N=CC=Cc1ccccc1)c1cccs1 [Example 11] |  |  | mortality at 100 ppm [4]: > 95%

Source: US20080064730A1, “Azine Compounds for Combating Animal Pests” (BASF Aktiengesellschaft, priority 2004, published 2008)
